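A five-concentration, 48-hour dose response in 96-well plates underlies each endpoint, interpolated linearly between surrounding concentrations. GI50 is the concentration that inhibits growth by half.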 The source made the active and inactive calls. Cut-off read from the data, not from the text of the source: active = GI50 up to about 1.1 µM and inactive = higher.

Test systems include NCI-H522; SF-295; HT-29; SNB-19; LOX IMVI; SK-MEL-5; DU-145; SF-539; NCI-H226; UACC-62; OVCAR-5; HCT-116; NCI-H460; OVCAR-4; MDA-N; KM12; A498; CAKI-1; M14; IGROV-1.
Experiment in all cases: inhibition of tumour cell growth, NCI panel, 48 h

`CCOC(=O)NC(Nc1ccc(F)cc1)(C(=O)OCC)C(F)(F)F` (stereo not drawn): the GI50 was > 100 µM (inactive) in the assay with NCI-H522; 8.38 µM (inactive) in the assay with SF-295; > 100 µM (inactive) in the assay with HT-29; > 100 µM (inactive) in the assay with SNB-19; 0.153 µM (active) in the assay on LOX IMVI; 0.192 µM (active) in the assay on SK-MEL-5. For the same molecule, the GI50 in the assay with DU-145 was > 21.5 µM (inactive); with SF-539 it was > 100 µM (inactive); in the assay with NCI-H226, > 100 µM (inactive); in the assay with UACC-62 it was 0.121 µM (active); with OVCAR-5, > 100 µM (inactive); with HCT-116 it was 3.12 µM (inactive). In addition, the GI50 is > 21.7 µM (inactive) with NCI-H460; > 50.8 µM (inactive) in the assay on OVCAR-4; > 62.1 µM (inactive) in the assay on MDA-N; 0.556 µM (active) in the assay on KM12; > 100 µM (inactive) in the assay with A498; > 100 µM (inactive) in the assay on CAKI-1. For the same molecule, the GI50 with M14 is 0.156 µM (active).

For the molecule `N#Cc1c(-c2ccccc2)c(/N=N/c2ccc(F)cc2)c(=O)n2c1[nH]c1ccccc12`, the GI50 was 2.18 µM (inactive) with NCI-H522; 5.25 µM (inactive) with SF-295; 2.92 µM (inactive) with HT-29; 5.05 µM (inactive) with SNB-19; 9.35 µM (inactive) with LOX IMVI; 1.53 µM (inactive) in the assay on SK-MEL-5. Besides, the GI50 in the assay with DU-145 was 4.48 µM (inactive); in the assay on SF-539, 10.9 µM (inactive); in the assay on NCI-H226 it was 7.28 µM (inactive); in the assay on UACC-62, 4.82 µM (inactive); with OVCAR-5 it was 5.94 µM (inactive); in the assay with HCT-116, 2.03 µM (inactive). The GI50 was 2.31 µM (inactive) in the assay on NCI-H460; 4.09 µM (inactive) with OVCAR-4; 4.17 µM (inactive) with MDA-N; 2.69 µM (inactive) in the assay on IGROV-1; 3.15 µM (inactive) in the assay with KM12; 8.02 µM (inactive) in the assay on A498. The GI50 in the assay on CAKI-1 was 3.92 µM (inactive); in the assay on M14 it was 3.54 µM (inactive).

Consider `CC(=O)O[C@@H]1[C@H]2O[C@H]2[C@H]2O[C@@]2(COC(=O)c2ccccc2)[C@H]1OC(C)=O`, for which the GI50 in the assay on NCI-H522, with SF-295, with HT-29, with SNB-19, in the assay with LOX IMVI and in the assay with SK-MEL-5 was > 100 µM (inactive) in each case. Further, the GI50 in the assay on DU-145 was 73.5 µM (inactive); in the assay with SF-539 it was > 100 µM (inactive); with NCI-H226, > 100 µM (inactive); in the assay on UACC-62, > 100 µM (inactive); in the assay on OVCAR-5 it was > 100 µM (inactive); in the assay with HCT-116, > 100 µM (inactive). Besides, the GI50 in the assay with NCI-H460 is 34.2 µM (inactive); in the assay with OVCAR-4 it was > 100 µM (inactive); in the assay on MDA-N it was > 100 µM (inactive); with IGROV-1 it was 35.8 µM (inactive); in the assay on KM12 it was > 100 µM (inactive); in the assay with A498, > 100 µM (inactive). For the same molecule, the GI50 in the assay on CAKI-1 was 99.1 µM (inactive); with M14 it was > 100 µM (inactive).

In the case of `CCC(c1ccc(OC)cc1)C1NC(=S)NC1=O` (stereo not drawn), the GI50 in the assay on NCI-H522, in the assay with SF-295, in the assay on HT-29, with SNB-19, in the assay on LOX IMVI and in the assay with SK-MEL-5 was > 50 µM (inactive) throughout. Also, the GI50 in the assay on DU-145, in the assay with SF-539, in the assay on NCI-H226, in the assay with OVCAR-5, in the assay on HCT-116 and in the assay on NCI-H460 was > 50 µM (inactive) each time. Further, the GI50 in the assay with OVCAR-4, in the assay with MDA-N, in the assay with IGROV-1, in the assay on KM12, in the assay on A498 and in the assay on CAKI-1 was > 50 µM (inactive) in each case. In addition, the GI50 in the assay on M14 was > 50 µM (inactive).

For the molecule `NC1=C(N2CCOCC2)C(=O)NC2=N/C(=C\c3ccccc3)C(=O)N21`, the GI50 was > 100 µM (inactive) in the assay with NCI-H522; 3.87 µM (inactive) with SF-295; > 100 µM (inactive) with HT-29; > 100 µM (inactive) with SNB-19; > 100 µM (inactive) in the assay with LOX IMVI; > 100 µM (inactive) in the assay with SK-MEL-5. Moreover, the GI50 was > 100 µM (inactive) with DU-145; 76.7 µM (inactive) in the assay with SF-539; 97.9 µM (inactive) with NCI-H226; > 100 µM (inactive) in the assay on OVCAR-5; > 100 µM (inactive) in the assay on HCT-116; > 100 µM (inactive) in the assay on NCI-H460. Also, the GI50 with OVCAR-4 is > 100 µM (inactive); in the assay on MDA-N it was > 100 µM (inactive); with IGROV-1, > 100 µM (inactive); with KM12 it was > 100 µM (inactive); in the assay with A498, 64.3 µM (inactive); with CAKI-1, > 100 µM (inactive). Besides, the GI50 in the assay on M14 was > 100 µM (inactive).

Consider `O=C1C(Br)=CC2(C=C1Br)CCNC1=C2C(=O)c2[nH]cnc2C1=O`, for which the GI50 in the assay with NCI-H522 was 14.4 µM (inactive); in the assay on SF-295, 16.2 µM (inactive); in the assay on HT-29 it was 15.5 µM (inactive); in the assay on LOX IMVI it was 13.5 µM (inactive); in the assay with SK-MEL-5 it was 11.2 µM (inactive); in the assay on DU-145 it was 16 µM (inactive). Also, the GI50 with SF-539 was 18.1 µM (inactive); in the assay with NCI-H226 it was 20.4 µM (inactive); in the assay with UACC-62, 11.9 µM (inactive); with OVCAR-5 it was 15.9 µM (inactive); in the assay on HCT-116, 14.7 µM (inactive); in the assay on NCI-H460, 16.7 µM (inactive). For the same molecule, the GI50 in the assay with OVCAR-4 is 14.5 µM (inactive); in the assay with MDA-N, 1.77 µM (inactive); in the assay on KM12, 16.9 µM (inactive); with A498, 19 µM (inactive); with CAKI-1 it was 24.5 µM (inactive); with M14, 16.9 µM (inactive).

Consider `Cc1c(-c2ccccc2)cc(O)c2nc3ccccc3n12`, for which the GI50 with NCI-H522 was 20.4 µM (inactive); in the assay with SF-295, 49.8 µM (inactive); in the assay with HT-29, > 100 µM (inactive); in the assay on SNB-19 it was 96.8 µM (inactive); in the assay on LOX IMVI, 4.99 µM (inactive); in the assay with SK-MEL-5, 44 µM (inactive). For the same molecule, the GI50 in the assay with DU-145 was > 100 µM (inactive); in the assay with SF-539, > 100 µM (inactive); in the assay on NCI-H226 it was > 100 µM (inactive); in the assay on UACC-62, 11 µM (inactive); in the assay on OVCAR-5, > 100 µM (inactive); in the assay with NCI-H460, 6.31 µM (inactive). For the same molecule, the GI50 with OVCAR-4 is 9.68 µM (inactive); in the assay on MDA-N, 46.8 µM (inactive); in the assay with IGROV-1, 39.5 µM (inactive); in the assay with KM12, 15.6 µM (inactive); with A498 it was > 100 µM (inactive); with CAKI-1, 74.1 µM (inactive). In the assay on M14, the GI50 was > 100 µM (inactive).

As to `C=CC(c1ccccc1)[C@@]1(OC(C)=O)C(=O)C(=O)OC1C1COC(C)(C)O1` (stereo partly drawn), the GI50 in the assay on NCI-H522 was 3.77 µM (inactive); in the assay with SF-295, 16.7 µM (inactive); with HT-29 it was 15.1 µM (inactive); in the assay with SNB-19 it was 19.5 µM (inactive); in the assay on LOX IMVI it was 4.16 µM (inactive); with SK-MEL-5 it was 15.9 µM (inactive). Moreover, the GI50 was 21.2 µM (inactive) in the assay with DU-145; 10.4 µM (inactive) with SF-539; 17.2 µM (inactive) with NCI-H226; 14.1 µM (inactive) with UACC-62; 18.5 µM (inactive) with OVCAR-5; 11.1 µM (inactive) with HCT-116. Further, the GI50 with NCI-H460 was 14.5 µM (inactive); in the assay on OVCAR-4, 14.9 µM (inactive); in the assay on MDA-N it was 10.4 µM (inactive); with IGROV-1, 15.3 µM (inactive); in the assay on KM12, 15.2 µM (inactive); in the assay on A498, 19.7 µM (inactive). Moreover, the GI50 with CAKI-1 is 4.72 µM (inactive); in the assay on M14, 11.1 µM (inactive).

As to `OC(c1nc2ccccc2[nH]1)C(O)C(O)C(O)c1nc2ccccc2[nH]1` (stereo not drawn), the GI50 in the assay with NCI-H522, in the assay on SF-295, in the assay on HT-29, in the assay on SNB-19, in the assay with LOX IMVI and in the assay with SK-MEL-5 was > 100 µM (inactive) throughout. Also, the GI50 with DU-145, with SF-539, in the assay on NCI-H226, in the assay on UACC-62, in the assay with OVCAR-5 and with HCT-116 was > 100 µM (inactive) in each case. The GI50 in the assay on NCI-H460, in the assay with OVCAR-4, in the assay on MDA-N, in the assay on IGROV-1, with KM12 and in the assay with A498 was > 100 µM (inactive) throughout. Further, the GI50 in the assay with CAKI-1 and with M14 was > 100 µM (inactive) in each case.

`COC(=O)CNC(=O)CCC(C)[C@H]1CCC2C3C(C[C@H](OC(C)=O)[C@@]21C)[C@@]1(C)CCC2(C[C@H]1C[C@H]3OC(C)=O)OOC1(CC[C@]3(C)C4C[C@H](OC(C)=O)[C@@]5(C)C(CC[C@@H]5C(C)CCC(=O)NCC(=O)OC)C4[C@H](OC(C)=O)C[C@@H]3C1)OO2` (stereo partly drawn): the GI50 was 0.991 µM (active) in the assay on NCI-H522; 5.65 µM (inactive) in the assay with SF-295; 1.01 µM (active) in the assay on HT-29; 37.2 µM (inactive) in the assay with SNB-19; 0.962 µM (active) with LOX IMVI; 0.94 µM (active) in the assay on SK-MEL-5. The GI50 in the assay on DU-145 was 0.933 µM (active); with SF-539, 0.959 µM (active); in the assay with NCI-H226 it was 1.12 µM (active); in the assay with OVCAR-5 it was 2.03 µM (inactive); in the assay with HCT-116 it was 1.99 µM (inactive); in the assay on NCI-H460, 2.07 µM (inactive). In addition, the GI50 in the assay on OVCAR-4 is 4.9 µM (inactive); in the assay with MDA-N, 3.44 µM (inactive); with IGROV-1, 0.836 µM (active); with KM12, 3.98 µM (inactive); in the assay on A498 it was 12 µM (inactive); in the assay with CAKI-1 it was 2.15 µM (inactive). Further, the GI50 in the assay with M14 is 1.37 µM (inactive).

(Values after ChEMBL document CHEMBL1201862, “PubChem BioAssay data set” (2004).)
